Test [1] deals with Salinispora tropica CNB476. Particulars: CNB476, day 6 production culture. How it is done: (§1) The first seed cultures (100 mL medium) in 500-mL Erlenmeyer flasks were incubated for 96 hours before inoculating 5 mL of the first seed culture into the second seed medium with the same composition as the first seed medium. The second seed cultures (100 mL medium in 500-mL Erlenmeyer flask) were incubated for 48 hours before inoculating 5 mL of the second seed culture into the production medium (100 mL in a 500-mL Erlenmeyer flask).
(§2) Per liter of DI H2O, the production medium consisted of: 10 g Starch, 4 g Hy Soy, 4 g Yeast Extract, 1 g CaCO3, 40 mg Fe2(SO4)3, and 100 mg KBr. The production medium was then supplemented with a chemically defined salt formulation consisted of the following common salt components along with different levels of NaCl:
(§3) The NaCl levels used were 0, 5, 10, 15, 20, 24 and 30 g/L. About […], sterile XAD-7 resin slurry was added to the production cultures in a final concentration of 20 g/L. The production culture was then further incubated and harvested at various time points to determine productivity.

For test [2], the system named is Salinispora tropica NPS021184. Conditions: NPS21184, day 6 production culture. How it is done:
as §1, §2, §3

Test [3] has as its system Salinispora tropica CNB440. Particulars: CNB440, day 6 production culture. How it is done: as §1, §2, §3

The values that follow come from US10011814B2, “Salt formulations for the fermentation of marine microorganisms” (Triphase Research and Development I Corp., priority 2006, dated 2018).

Each structure is given as a SMILES string. Like-named read-outs stand apart in the source and are kept apart here.

Turning to `[Cl-].[Na+]` [NaCl], the “Packed Cell Volume” value in test [1] (NaCl 0 g/L) was determined as 0%; in test [1] (NaCl 5 g/L) it was 2%; in test [1] (NaCl 10 g/L) it was 5%; in test [1] (NaCl 15 g/L) it was 5%; in test [1] (NaCl 20 g/L) it was 6%; in test [1] (NaCl 24 g/L) it was 6%. Further, the “Packed Cell Volume” value in test [1] (NaCl 30 g/L) was determined as 6%; in test [2] (NaCl 0 g/L) it was 0%; in test [2] (NaCl 5 g/L), 6%; in test [2] (NaCl 10 g/L), 6%; in test [2] (NaCl 15 g/L), 6%; in test [2] (NaCl 20 g/L) it was 5%. Further, the “Packed Cell Volume” value amounted to 5% in test [2] (NaCl 24 g/L); 5% in test [2] (NaCl 30 g/L); 0% in test [3] (NaCl 0 g/L); 5% in test [3] (NaCl 5 g/L); 5% in test [3] (NaCl 10 g/L); 4% in test [3] (NaCl 15 g/L). The “Packed Cell Volume” value in test [3] (NaCl 20 g/L), in test [3] (NaCl 24 g/L) and in test [3] (NaCl 30 g/L) was 5% throughout.
